Data published in publication PMC6379670, “An ultra-high affinity ligand of HIV-1 TAR reveals the RNA structure recognized by P-TEFb” (Nucleic Acids Research, 2018).
Non-standard residues stand in square brackets, D forms with d. Residues, ends and D or L forms follow the SMILES beside them. Orn = NCCC[C@H](N)C(=O)O; Dab = NCC[C@H](N)C(=O)O

biological target: HIV-1 TAR RNA; assay type: binding; details: EMSA, 32P radiolabeled HIV-1 TAR RNA, [RNA]=75pM; Table 1; read-out: K D (HIV)
Protocol: Electro Mobility Shift Assays (EMSA) and 2-aminopurine fluorescence ([35]) were used to measure peptide binding. For EMSA, all RNAs were 5′-dephosphorylated ([25],[26]) and 5′-rephosphorylated using T4 Polynucleotide Kinase (PNK); shifts were performed and analyzed as previously described ([14]). The P-TEFb/Tat1:57/AFF4 binding assays were run as described ([11]), with protein samples generously donated by Drs Ursula Schulze-Gahmen and James Hurley, but binding buffers contained 250× fold excess yeast tRNA. JB181-bound samples were prepared with 3× excess labeled HIV-TAR prior to titration with the pre-formed P-TEFb/Tat1:57/AFF4 complex.
Fig. S1. a) HIV-1 TAR, BIV TAR and 7SK-SL4 RNAs have similar secondary structures, but the JB181 peptide discriminates between them. […]
tightly than BIV TAR (3.3 nM) or 7SK (>3 μM) RNAs. b) EMSA of representative JB-peptides with 32P radiolabeled HIV-1 TAR RNA ([RNA]=75pM). The peptide concentration increases from left to right, as indicated. The dissociation constant can be estimated by the peptide concentration where there is an approximate 1:1 ratio (as established by visual inspection) between free RNA and complex, since the RNA concentration is much lower than the KD.
(1 picture or pasted object on this page, not shown here)

| SMILES | Kd |
| --- | --- |
| CC[C@H](C)[C@@H]1NC(=O)[C@H](CCCNC(=N)N)NC(=O)[C@H](CCCNC(=N)N)NC(=O)CNC(=O)[C@H](CCCCN)NC(=O)[C@H](CCCNC(=N)N)NC(=O)[C@H]([C@@H](C)O)NC(=O)[C@H](CCCNC(=N)N)NC(=O)[C@H](C(C)C)NC(=O)[C@H](CCCN)NC(=O)[C@@H]2CCCN2C(=O)[C@H]2CCCN2C(=O)[C@H]([C@@H](C)CC)NC(=O)[C@H](CCCNC(=N)N)NC1=O [JB58] (cyclo([Orn]VRTRKGRRIRI[dP]P)) | 3 ± 0.3 nM |
| CC[C@H](C)[C@@H]1NC(=O)[C@H](CCCNC(=N)N)NC(=O)[C@H](CCCNC(=N)N)NC(=O)CNC(=O)[C@H](CCCCN)NC(=O)[C@H](CCCNC(=N)N)NC(=O)[C@H]([C@@H](C)O)NC(=O)[C@H](CCCNC(=N)N)NC(=O)[C@H](C(C)C)NC(=O)[C@H](CCN)NC(=O)[C@@H]2CCCN2C(=O)[C@H]2CCCN2C(=O)[C@H]([C@@H](C)CC)NC(=O)[C@H](CCCNC(=N)N)NC1=O [JB59] (cyclo([Dab]VRTRKGRRIRI[dP]P)) | 1 ± 0.3 nM |
| CC[C@H](C)[C@@H]1NC(=O)[C@H](CCCNC(=N)N)NC(=O)[C@H](CCCNC(=N)N)NC(=O)CNC(=O)[C@H](CCCCN)NC(=O)[C@H](CCCNC(=N)N)NC(=O)[C@H]([C@@H](C)O)NC(=O)[C@H](CCCNC(=N)N)NC(=O)[C@H](C(C)C)NC(=O)[C@H](CCN)NC(=O)[C@@H]2CCCN2C(=O)[C@H]2CCCN2C(=O)[C@H](CC(C)C)NC(=O)[C@H](CCCNC(=N)N)NC1=O [JB185] (cyclo([Dab]VRTRKGRRIRL[dP]P)) | 0.5 ± 0.1 nM |

same assay, conditions: EMSA; positional scanning library, Table S1; with tRNA; read-out: Kd (nM) w/tRNA

| SMILES | Kd |
| --- | --- |
| CC[C@H](C)[C@@H]1NC(=O)[C@H](CCCNC(=N)N)NC(=O)[C@H](CCCNC(=N)N)NC(=O)CNC(=O)[C@H](CCCCN)NC(=O)[C@H](CCCNC(=N)N)NC(=O)[C@H]([C@@H](C)O)NC(=O)[C@H](CCCNC(=N)N)NC(=O)[C@H](C(C)C)NC(=O)[C@H](CCC(N)=O)NC(=O)[C@@H]2CCCN2C(=O)[C@H]2CCCN2C(=O)[C@H]([C@@H](C)CC)NC(=O)[C@H](CCCNC(=N)N)NC1=O [JB-61] (cyclo(QVRTRKGRRIRI[dP]P)) | > 1000 nM |
| CC[C@H](C)[C@@H]1NC(=O)[C@H](CCCNC(=N)N)NC(=O)[C@H](CCCNC(=N)N)NC(=O)CNC(=O)[C@H](CCCCN)NC(=O)[C@H](CCCNC(=N)N)NC(=O)[C@H]([C@@H](C)O)NC(=O)[C@H](CCCNC(=N)N)NC(=O)[C@H](CC(=O)O)NC(=O)[C@H](CCCNC(=N)N)NC(=O)[C@@H]2CCCN2C(=O)[C@H]2CCCN2C(=O)[C@H]([C@@H](C)CC)NC(=O)[C@H](CCCNC(=N)N)NC1=O [JB-64] (cyclo(RDRTRKGRRIRI[dP]P)) | > 1000 nM |
| CC[C@H](C)[C@@H]1NC(=O)[C@H](CCCNC(=N)N)NC(=O)[C@H](CCCNC(=N)N)NC(=O)CNC(=O)[C@H](CCCCN)NC(=O)[C@H](CCC(N)=O)NC(=O)[C@H]([C@@H](C)O)NC(=O)[C@H](CCCNC(=N)N)NC(=O)[C@H](C(C)C)NC(=O)[C@H](CCCNC(=N)N)NC(=O)[C@@H]2CCCN2C(=O)[C@H]2CCCN2C(=O)[C@H]([C@@H](C)CC)NC(=O)[C@H](CCCNC(=N)N)NC1=O [JB-67] (cyclo(RVRTQKGRRIRI[dP]P)) | > 1000 nM |
| CC[C@H](C)[C@@H]1NC(=O)[C@H](CCCNC(=N)N)NC(=O)[C@H](CCCNC(=N)N)NC(=O)CNC(=O)[C@H](CCCCN)NC(=O)[C@H](Cc2ccc(O)cc2)NC(=O)[C@H]([C@@H](C)O)NC(=O)[C@H](CCCNC(=N)N)NC(=O)[C@H](C(C)C)NC(=O)[C@H](CCCNC(=N)N)NC(=O)[C@@H]2CCCN2C(=O)[C@H]2CCCN2C(=O)[C@H]([C@@H](C)CC)NC(=O)[C@H](CCCNC(=N)N)NC1=O [JB-68] (cyclo(RVRTYKGRRIRI[dP]P)) | > 1000 nM |
| CC[C@H](C)[C@@H]1NC(=O)[C@H](CCCNC(=N)N)NC(=O)[C@H](Cc2ccc(O)cc2)NC(=O)CNC(=O)[C@H](CCCCN)NC(=O)[C@H](CCCNC(=N)N)NC(=O)[C@H]([C@@H](C)O)NC(=O)[C@H](CCCNC(=N)N)NC(=O)[C@H](C(C)C)NC(=O)[C@H](CCCNC(=N)N)NC(=O)[C@@H]2CCCN2C(=O)[C@H]2CCCN2C(=O)[C@H]([C@@H](C)CC)NC(=O)[C@H](CCCNC(=N)N)NC1=O [JB-69] (cyclo(RVRTRKGYRIRI[dP]P)) | > 1000 nM |
